Where “and” joins values, the source holds several entries; their conditions need not be identical. Equal values may be shown once. Entries after “also recorded” stand apart in the source; their conditions may differ. Read-outs that look alike come from different tables or passages of the source.
Legend:
PaMTADA [1] = target: T1, PaMTADA (Pseudomonas aeruginosa, UniProt Q9HZ64); type: biochemical
PaMTADA [2] = type: biochemical, Pseudomonas aeruginosa; details: times higher than PfADA
PfADA [3] = details: substrate; ref Ting et al. [13]; cited from earlier work
human ADA [4] = details: cited from earlier work
bovine ADA = details: result in words; cited from earlier work
PfADA [5] = details: cited from earlier work
human ADA [6] = details: cited from earlier work; for inhibition of human ADA: result in words
PaMTADA [7] = target: T2, PaMTADA (Pseudomonas aeruginosa, UniProt Q9HZ64); experiment: Inhibition of PaMTADA activity in cell lysates; type: biochemical, P. aeruginosa PAO1; details: cell lysate, 50 nM inhibitor
T2 sequence (Q9HZ64 1-444): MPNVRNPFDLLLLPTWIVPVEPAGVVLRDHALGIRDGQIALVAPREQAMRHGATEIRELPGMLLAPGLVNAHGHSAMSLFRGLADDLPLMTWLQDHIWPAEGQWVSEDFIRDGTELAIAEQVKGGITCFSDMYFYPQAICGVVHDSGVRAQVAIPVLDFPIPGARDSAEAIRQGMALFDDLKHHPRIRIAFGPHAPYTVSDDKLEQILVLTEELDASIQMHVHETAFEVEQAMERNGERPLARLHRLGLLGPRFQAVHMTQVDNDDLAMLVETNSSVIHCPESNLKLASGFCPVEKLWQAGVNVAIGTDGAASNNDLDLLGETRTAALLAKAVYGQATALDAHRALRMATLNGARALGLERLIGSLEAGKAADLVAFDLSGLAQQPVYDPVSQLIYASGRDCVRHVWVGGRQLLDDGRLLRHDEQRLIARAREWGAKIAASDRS

[8] = target: T3, cellular PaMTADA activity (Pseudomonas aeruginosa, UniProt Q9HZ64); experiment: Inhibition of cellular PaMTADA; type: cell-based, P. aeruginosa PAO1
T3 sequence (Q9HZ64 1-444): T2 sequence (Q9HZ64 1-444)

P. aeruginosa PAO1 = experiment: Growth of P. aeruginosa PAO1 with or without MTCF; type: cell-based; details: up to 1 μM, 36 hours, 37 °C
PfADA [9] = experiment: Inhibition of PfADA; type: biochemical, Plasmodium falciparum; details: times weaker than CF
PaMTADA [10] = target: T1, PaMTADA; type: biochemical; details: times weaker than MTDCF
[11] = substrate, ref Tyler et al. [16]
[12] = read-out: Ki* from slow-onset inhibition, Ki* values
[13] = equilibrium dissociation constant

5′-methylthioadenosine [MTA]
catalytic efficiency (kcat/Km) for MTA relative to adenosine (PaMTADA [1]; MTA over adenosine): 40 fold | Km (PaMTADA [1]; substrate, 25 °C, pH 7.4): 1.5 ± 0.3 µM | kcat (PaMTADA [1]; substrate, 25 °C, pH 7.4): 24.6 s⁻¹ and 24.6 ± 0.8 s⁻¹ | catalytic efficiency of PaMTADA on MTA relative to PfADA (PaMTADA [2]): 160 times | Km (PfADA [3]): 170 ± 20 µM | kcat (PfADA [3]): 15.0 ± 0.9 s⁻¹ | use as substrate by human ADA (human ADA [4]; result in words): do not utilize | kcat (human ADA [4]; [11]): < 0.02 s⁻¹ | use as substrate by bovine ADA (bovine ADA): do not utilize

OC[C@H]1O[C@@H](n2cnc3c2N=CNC[C@H]3O)[C@H](O)[C@@H]1O [Coformycin (CF), (2R,3R,4S,5R)-2-((R)-8-hydroxy-7,8-dihydroimidazo[4,5-d][1,3]diazepin-3(6H)-yl)-5-(hydroxymethyl)tetrahydrofuran-3,4-diol, reference compound]
Ki (PfADA [5]; [12]): 0.08 ± 0.02 nM | Ki (human ADA [6]; [12]): 0.11 ± 0.02 nM

CSC[C@H]1O[C@@H](n2cnc3c2N=CNC[C@H]3O)[C@H](O)[C@@H]1O [MTCF, 5′-methylthiocoformycin]
degradation of MTA (PaMTADA [7]): completely blocked | PaMTADA activity ([8]; 500 nM MTCF in LB medium plus 100 nM MTCF added to cell lysate): All PaMTADA activity was inhibited | concentration of maximal inhibition ([8]; MTCF in LB medium): 10 nM | effect on cell growth based on OD600 (P. aeruginosa PAO1): no effect | Ki (PfADA [5]; [12]): 0.4 ± 0.1 nM | Ki (human ADA [6]; [13]): > 10000 nM | inhibition of human ADA (human ADA [6]): no significant inhibition; also recorded: no inhibitory effect; also recorded: no significant inhibitory effects

CSC[C@H]1O[C@@H](n2cnc3c2N=CNC[C@H]3O)C[C@@H]1O [MTDCF, 5′-methylthio-2′-deoxycoformycin]
binding affinity for PfADA relative to CF (PfADA [9]): 9 times | Ki (PfADA [5]; [12]): 0.7 ± 0.2 nM | Ki (human ADA [6]; [13]): > 10000 nM | inhibition of human ADA (human ADA [6]): no inhibitory effect

O[C@@H]1CNC=Nc2c1ncn2[C@H]1C[C@H](O)[C@@H](CSc2ccccc2)O1 [PhTDCF, 5′-phenylthio-2′-deoxycoformycin]
Ki (PfADA [5]; [13]): 60 ± 10 nM

CCCSC[C@H]1O[C@@H](n2cnc3c2N=CNC[C@H]3O)C[C@@H]1O [PrTDCF, 5′-propylthio-2′-deoxycoformycin]
binding to PaMTADA relative to MTDCF (PaMTADA [10]): 8 times | binding affinity for PfADA relative to CF (PfADA [9]): 150 times | Ki (PfADA [5]; [13]): 12 ± 1 nM | Ki (human ADA [6]; [13]): > 10000 nM

Nc1ncnc2c1ncn2[C@@H]1O[C@H](CO)[C@@H](O)[C@H]1O [adenosine]
kcat (PaMTADA [1]; substrate, 25 °C, pH 7.4): 17 ± 1 s⁻¹ | kcat (PfADA [3]): 1.8 ± 0.1 s⁻¹ | Km (human ADA [4]; [11]): 22 ± 3 µM | kcat (human ADA [4]; [11]): 36 ± 1 s⁻¹
